We go through two compounds from paper PMC10400579, “FDW028, a novel FUT8 inhibitor, impels lysosomal proteolysis of B7-H3 via chaperone-mediated autophagy pathway and exhibits potent efficacy against metastatic colorectal cancer” (Cell Death & Disease, 2023).

The Kd is the equilibrium constant for the complex coming apart.

Experiment [1] concerns the target T1, Fucosyltransferase 8 (FUT8) (Homo sapiens, UniProt Q9BYC5).
T1 sequence (Q9BYC5 31-575): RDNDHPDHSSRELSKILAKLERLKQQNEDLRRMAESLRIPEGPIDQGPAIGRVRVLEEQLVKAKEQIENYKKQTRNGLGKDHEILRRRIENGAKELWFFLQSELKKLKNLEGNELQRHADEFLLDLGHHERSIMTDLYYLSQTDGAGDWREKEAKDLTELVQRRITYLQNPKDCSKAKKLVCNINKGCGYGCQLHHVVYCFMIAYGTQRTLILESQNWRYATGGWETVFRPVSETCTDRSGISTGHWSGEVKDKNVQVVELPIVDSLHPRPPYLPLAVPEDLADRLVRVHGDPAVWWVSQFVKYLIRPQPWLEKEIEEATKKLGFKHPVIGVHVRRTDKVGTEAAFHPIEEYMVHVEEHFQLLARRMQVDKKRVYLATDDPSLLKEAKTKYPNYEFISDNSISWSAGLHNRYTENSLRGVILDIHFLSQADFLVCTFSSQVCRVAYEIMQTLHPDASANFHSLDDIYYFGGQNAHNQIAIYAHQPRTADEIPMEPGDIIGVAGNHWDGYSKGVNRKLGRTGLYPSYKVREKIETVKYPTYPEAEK
In words: grating-coupled interferometry (GCI) with immobilized FUT8; supported by thermal shift of FUT8-Flag from SW480 cells (Tm +[…] °C at […]). In kind it is binding.

In experiment [2] the target is T2, Fucosyltransferase 8 (FUT8) (Homo sapiens, UniProt Q9BYC5).
T2 construct: FUT8-Flag
T2 sequence (Q9BYC5 1-575): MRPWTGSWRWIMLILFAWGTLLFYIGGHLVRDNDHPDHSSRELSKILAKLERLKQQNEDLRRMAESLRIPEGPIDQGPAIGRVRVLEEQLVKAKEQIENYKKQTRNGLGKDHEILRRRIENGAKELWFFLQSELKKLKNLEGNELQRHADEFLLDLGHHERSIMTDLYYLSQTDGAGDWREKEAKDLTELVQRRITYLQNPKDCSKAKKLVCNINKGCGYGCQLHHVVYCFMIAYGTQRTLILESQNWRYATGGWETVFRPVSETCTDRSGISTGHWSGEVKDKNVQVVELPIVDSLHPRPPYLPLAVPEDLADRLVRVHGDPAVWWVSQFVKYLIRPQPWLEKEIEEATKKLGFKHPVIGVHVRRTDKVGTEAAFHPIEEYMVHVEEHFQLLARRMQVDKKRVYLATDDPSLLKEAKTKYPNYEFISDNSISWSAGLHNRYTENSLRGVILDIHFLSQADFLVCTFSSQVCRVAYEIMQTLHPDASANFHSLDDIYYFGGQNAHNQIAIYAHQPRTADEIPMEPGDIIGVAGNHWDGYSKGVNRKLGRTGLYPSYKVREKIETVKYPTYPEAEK
In words: streptavidin pulldown from SW480 lysate with […] probe, western blot and LC-MS/MS. In kind it is cell-based. (In general: In western blotting, separated proteins are transferred to a membrane and probed.)

For the compound `CCc1ccc(CNc2nc3nc(CNCc4ccccc4)cc(O)n3n2)cc1` [D2-1c, FDW028], in experiment [1], the dissociation constant (Kd) stood at 5.49 µM.

With `CCc1ccc(CNc2nc3nc(CN(Cc4ccccc4)C(=O)CCOCCOCCOCCOCCOCCOCCNC(=O)CCCC[C@@H]4SC[C@@H]5NC(=O)N[C@@H]54)cc(O)n3n2)cc1` [FDW028-PEG6-biotin], the “streptavidin pulldown from SW480 lysate with 0.2 mM probe, western blot and LC-M” value in experiment [2] is given as “much more FUT8-Flag was pulled down by FDW028-PEG6-biotin than the control”.
